Data set [1] deals with Felis catus. Description: In vivo inhibition of beta-1 adrenoceptor in vagotomized cat assessed as inhibition of isoproterenol-induced tachycardia. The format is functional, organism-based. To be noted: read-out: pA2 (converted).
The subject of data set [2] is Felis catus. Description: In vivo inhibition of beta-2 adrenoceptor in chloralose-anesthetized vagotomized cat assessed as inhibition of isoproterenol-induced fall in diastolic pressure. The format is functional, organism-based. The conditions noted are these: read-out: pA2 (converted).
Data set [3] concerns Felis catus. Description: Potency ratio for in vivo inhibition of beta-1 adrenoceptor in vagotomized cat assessed as inhibition of isoproterenol-induced tachycardia to in vivo inhibition of beta-2 adrenoceptor in chloralose-anesthetized vagotomized cat assessed as inhibition of isoproterenol-induced fall in diastolic pressure. The format is functional.
The nature of data set [4]: 1-Octanol-phosphate buffer apparent partition coefficient, log P of the compound at pH 7.4. The format is physicochemical.
The subject of data set [5] is Felis catus. Kind of data set: Potency ratio for in vivo inhibition of beta-2 adrenoceptor in chloralose-anesthetized vagotomized cat assessed as inhibition of isoproterenol-induced fall in diastolic pressure to in vivo inhibition of beta-1 adrenoceptor in vagotomized cat assessed as inhibition of isoproterenol-induced tachycardia. The format is functional.
The species entered for another data set is Cavia porcellus. Description: Selectivity for guinea pig right atria beta-1 adrenoceptor over guinea pig trachea beta-2 adrenoceptor.

As a reminder, the logD is lipophilicity at a set pH, counting ionised and neutral species.

As to `COc1ccc(CCNCC(O)COc2ccccc2)cc1OC.Cl` (racemic), the Kb with Felis catus [1] is 63.1 nM; with Felis catus [2], 692 nM. Further, the Ratio with Felis catus [3] came to 10. Moreover, in data set [4], the logD is 1.7.

On to `CC(C)N[C@H](C)[C@@H](O)COc1ccccc1.Cl` (racemic), for which the values for the Kb with Felis catus [1] and in the data set with Felis catus [2] were 501 nM and 151 nM, respectively. In addition, the Ratio with Felis catus [3] came out at 0.3; in the data set on Felis catus [5], 3. In addition, in data set [4], the log distribution coefficient (logD) was -0.244.

With `COc1ccc(CCN[C@H](C)[C@@H](O)COc2ccccc2)cc1OC.Cl` (racemic), the Kb was 219 nM with Felis catus [1] and > 10000 nM with Felis catus [2]. Besides, in the data set on Felis catus [3], the Ratio was >40. In data set [4], the logD is 1.66.

`CC(C)N[C@@H](C)[C@@H](O)COc1ccccc1.O=C(O)C(=O)O` (racemic): the Kb is 2190 nM with Felis catus [1] and 631 nM with Felis catus [2]. Also, the Ratio in the data set on Felis catus [3] is on record as 0.3; in the data set on Felis catus [5] it was 3. Besides, the logD in data set [4] was -0.244.

As for `CC(C)N[C@H](c1ccccc1)[C@@H](O)COc1ccccc1` (racemic), the Kb in the data set with Felis catus [1] and with Felis catus [2] was > 10000 nM throughout. Moreover, in data set [4], the logD is 2.1.

For the compound `Cc1ccc([C@@H](O)[C@H](C)NC(C)C)cc1` (racemic), the Kb in the data set on Felis catus [1] was > 10000 nM; in the data set with Felis catus [2], 3390 nM. Also, the Ratio in the data set on Felis catus [3] was <0.3. For the same compound, in data set [4], the logD is 0.149.

Consider `Cc1ccc(OCC(O)CNC(C)C)cc1` (racemic), for which the Kb in the data set with Felis catus [1] and in the data set on Felis catus [2] was 234 nM throughout. The Ratio in the data set on Felis catus [3] was found to be 1. The log distribution coefficient (logD) in data set [4] was 0.423.

With `CC(C)NCC(O)COc1ccccc1` (racemic), the Kb in the data set on Felis catus [1] was 44.7 nM; in the data set with Felis catus [2], 204 nM. Also, the Ratio in the data set with Felis catus [3] is reported as 5. The Selectivity ratio in the data set filed under Cavia porcellus came to 25. Also, in data set [4], the logD was -0.137.

For the compound `CC(=O)Nc1ccc(OCC(O)CNC(C)C)cc1` (racemic) [PRACTOLOL], the Kb was 229 nM in the data set on Felis catus [1] and 5010 nM with Felis catus [2]. Also, the Ratio with Felis catus [3] is 22. Moreover, in data set [4], the logD is -1.05.

Source of the values: ChEMBL document CHEMBL3244234, “Alteration of relative affinities toward myocardial and vascular beta adrenoceptors induced by side-chain substitution of aryloxypropanolamines” (J Med Chem, 1978).
